Results reported in ChEMBL document CHEMBL5053520, “Searching for an ideal SERM: Mining tamoxifen structure-activity relationships” (Bioorg Med Chem Lett, 2021).

Biological target: T1, Estrogen receptor (Homo sapiens, UniProt P03372)
T1 sequence (P03372 whole entry): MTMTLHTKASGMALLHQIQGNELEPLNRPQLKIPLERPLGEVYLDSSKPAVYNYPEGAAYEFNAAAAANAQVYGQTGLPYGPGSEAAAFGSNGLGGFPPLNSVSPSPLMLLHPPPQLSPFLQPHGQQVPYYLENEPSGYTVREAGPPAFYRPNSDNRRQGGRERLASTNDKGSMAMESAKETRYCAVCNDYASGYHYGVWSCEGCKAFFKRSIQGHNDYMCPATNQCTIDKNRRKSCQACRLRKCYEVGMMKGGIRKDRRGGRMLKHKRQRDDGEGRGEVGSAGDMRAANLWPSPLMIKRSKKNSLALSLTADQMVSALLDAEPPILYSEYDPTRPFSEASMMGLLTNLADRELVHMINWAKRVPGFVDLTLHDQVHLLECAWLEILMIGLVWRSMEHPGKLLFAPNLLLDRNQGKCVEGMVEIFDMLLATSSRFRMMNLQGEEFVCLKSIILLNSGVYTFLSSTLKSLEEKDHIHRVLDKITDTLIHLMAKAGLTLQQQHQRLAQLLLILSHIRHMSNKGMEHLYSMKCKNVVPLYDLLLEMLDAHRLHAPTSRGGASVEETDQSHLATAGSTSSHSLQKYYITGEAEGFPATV
Test: Displacement of fluorescent labeled-ligand from ERalpha (unknown origin) by competitive binding assay

Compound	IC50 [nM]
CC/C(=C(\c1ccc(O)cc1)c1cccc(OCCN2CCCCC2)c1)c1ccccc1	21
CC/C(=C(\c1ccc(O)cc1)c1cccc(OCCCN(C)C)c1)c1ccccc1	8.8
CC/C(=C(\c1ccccc1)c1cccc(OCCN2CCCC2)c1)c1ccccc1	81
CC/C(=C(\c1ccc(O)cc1)c1cccc(OCCCN2CCCC2)c1)c1ccccc1	10.7
CC/C(=C(\c1ccc(O)cc1)c1cccc(OCCN2CCCC2)c1)c1ccccc1	16.3
CC/C(=C(\c1ccc(O)cc1)c1cccc(OCCN(C)C)c1)c1ccccc1	24.3
CC/C(=C(\c1ccccc1)c1cccc(OCCN2CCCCC2)c1)c1ccccc1	422
CC/C(=C(\c1ccc(O)cc1)c1cccc(OCCCN2CCCCC2)c1)c1ccccc1	39.1

Results, then the compound that gave them:

IC50 [nM]	Compound
333	CC/C(=C(\c1ccccc1)c1cccc(OCCCN2CCCCC2)c1)c1ccccc1
35.5	CC/C(=C(\c1ccc(O)cc1)c1cccc(OCCN(CC)CC)c1)c1ccccc1
348	CC/C(=C(\c1ccccc1)c1cccc(OCCCN(CC)CC)c1)c1ccccc1
124	CC/C(=C(\c1ccccc1)c1cccc(OCCCN(C)C)c1)c1ccccc1
255	CC/C(=C(\c1ccccc1)c1cccc(OCCN(C)C)c1)c1ccccc1
15.1	CC/C(=C(\c1ccc(O)cc1)c1cccc(OCCCN(CC)CC)c1)c1ccccc1
359	CC/C(=C(\c1ccccc1)c1cccc(OCCCN2CCCC2)c1)c1ccccc1
571	CC/C(=C(\c1ccccc1)c1cccc(OCCN(CC)CC)c1)c1ccccc1
